compound: N#CC1(c2ccc(NC(=O)c3cccnc3NCc3ccncc3)cc2)CCCC1 [Apatinib] + C[C@@H](Oc1cc(-c2cnn(C3CCNCC3)c2)cnc1N)c1c(Cl)ccc(F)c1Cl [Crizotinib] (partner 1 µM); test: relative viability (nuclei count vs DMSO), 5 days (fraction); higher = more cells survive; conditions: first compound 0.08 µM
Method in brief: (§1)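 Dosing by pin tool came one day after lung cancer cell lines were seeded in 1536-well plates, using either one drug or a fixed anchor-drug dose plus five library-drug doses (not always all listed) in √10 steps. After 5 days, nuclei were counted on 4× images. Relative viability is treated-well nuclei count divided by vehicle-well nuclei count, and values are medians of duplicate plates.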

Cell Line	relative viability
201T	1.02
A549	0.818
A-427	0.902
BEN	0.957
CAL-12T	0.801
COR-L23	0.627
COR-L 105	0.871
Calu-6	0.789
EBC-1	0.211
EKVX	0.793
EMC-BAC-2	0.726
EPLC-272H	0.944
H3255	0.956
HARA	1.04
HCC-15	0.85
HCC-44	0.807
HCC-78	0.328

Cell Line	relative viability
HCC-366	0.437
HCC-827	0.969
HOP-62	0.989
IA-LM	0.857
LC-2-ad	0.477
LCLC-97TM1	0.449
LCLC-103H	1.02
LK-2	0.243
LOU-NH91	0.76
NCI-H358	0.682
NCI-H1299	0.998
NCI-H1563	0.824
NCI-H1703	0.359
NCI-H1944	1.03
NCI-H2170	1.23
NCI-H2228	0.542
SK-MES-1	0.983

same assay, conditions: first compound 0.253 µM

Cell Line	relative viability
201T	1.04
A549	0.917
A-427	0.969
ABC-1	1.42
BEN	1
CAL-12T	0.569
COR-L23	0.647
COR-L 105	0.696
Calu-6	0.855
ChaGo-K-1	1.09
EBC-1	0.185
EKVX	1.06
EMC-BAC-2	0.73
EPLC-272H	0.933
H3255	0.841
HARA	0.944
HCC-15	0.814
HCC-44	0.858

Cell Line	relative viability
HCC-78	0.325
HCC-366	0.587
HCC-827	0.887
IA-LM	0.615
LC-2-ad	0.496
LCLC-97TM1	0.409
LCLC-103H	1.05
LK-2	0.218
LOU-NH91	0.751
NCI-H358	0.586
NCI-H1299	0.974
NCI-H1563	0.848
NCI-H1703	0.464
NCI-H1944	1.17
NCI-H2170	1.22
NCI-H2228	0.418
SK-MES-1	0.937

same assay, conditions: first compound 0.8 µM

Cell Line	relative viability
201T	0.996
A549	0.737
A-427	0.919
ABC-1	1.11
BEN	0.94
CAL-12T	0.694
COR-L23	0.648
COR-L 105	0.796
Calu-6	0.726
ChaGo-K-1	1.1
EBC-1	0.178
EKVX	0.941
EMC-BAC-2	0.764
EPLC-272H	0.767
H3255	0.907
HARA	1.05
HCC-15	0.811
HCC-44	0.779

Cell Line	relative viability
HCC-78	0.326
HCC-366	0.605
HCC-827	0.767
HOP-62	0.868
IA-LM	0.697
LC-2-ad	0.463
LCLC-97TM1	0.372
LCLC-103H	1.01
LK-2	0.212
LOU-NH91	0.722
NCI-H358	0.525
NCI-H1299	0.517
NCI-H1563	0.864
NCI-H1703	0.347
NCI-H1944	0.998
NCI-H2170	1.11
NCI-H2228	0.506
SK-MES-1	0.897

same assay, conditions: first compound 2.53 µM

Cell Line	relative viability
201T	1.03
A549	0.61
A-427	0.808
ABC-1	0.932
BEN	0.671
CAL-12T	0.695
COR-L23	0.52
COR-L 105	0.727
Calu-6	0.599
ChaGo-K-1	1.05
EBC-1	0.211
EKVX	0.654
EMC-BAC-2	0.633
EPLC-272H	0.8
H3255	0.723
HARA	1.05
HCC-15	0.799
HCC-44	0.716

Cell Line	relative viability
HCC-78	0.347
HCC-366	0.466
HCC-827	0.83
HOP-62	0.935
IA-LM	0.694
LC-2-ad	0.473
LCLC-97TM1	0.264
LCLC-103H	0.97
LK-2	0.237
LOU-NH91	0.69
NCI-H358	0.54
NCI-H1299	0.961
NCI-H1563	0.851
NCI-H1703	0.194
NCI-H1944	0.983
NCI-H2170	1.12
NCI-H2228	0.42
SK-MES-1	0.955

same assay, conditions: first compound 8 µM

Cell Line	relative viability
201T	0.992
A549	0.56
A-427	0.705
ABC-1	0.614
BEN	0.65
CAL-12T	0.459
COR-L23	0.565
COR-L 105	0.586
Calu-6	0.594
ChaGo-K-1	0.901
EBC-1	0.208
EKVX	0.671
EMC-BAC-2	0.475
EPLC-272H	0.991
H3255	0.786
HARA	0.806
HCC-15	0.717
HCC-44	0.705

Cell Line	relative viability
HCC-78	0.346
HCC-366	0.547
HCC-827	0.575
HOP-62	0.654
IA-LM	0.192
LC-2-ad	0.482
LCLC-97TM1	0.161
LCLC-103H	1.07
LK-2	0.242
LOU-NH91	0.629
NCI-H358	0.43
NCI-H1299	0.77
NCI-H1563	0.797
NCI-H1703	0.15
NCI-H1944	0.911
NCI-H2170	1.07
NCI-H2228	0.262
SK-MES-1	0.796

compound: CN(C)C(=N)NC(=N)N [Metformin] + CC(=O)Nc1cccc(-n2c(=O)n(C3CC3)c(=O)c3c(Nc4ccc(I)cc4F)n(C)c(=O)c(C)c32)c1 [Trametinib] (partner 0.02 µM); test: as above; conditions: first compound 10 µM
Method in brief: as §1

Cell Line	relative viability
A-427	0.719
BEN	1.25
CAL-12T	0.357
COR-L23	0.538
COR-L 105	0.428
ChaGo-K-1	0.923
EMC-BAC-2	0.751
EPLC-272H	0.341
H3255	0.587
HARA	1.45
HCC-366	0.301
HCC-827	0.575
HOP-62	0.409
LCLC-103H	0.72
LK-2	0.829
LOU-NH91	0.732
NCI-H358	0.12
NCI-H522	1.07
NCI-H1395	0.945
NCI-H1793	0.432
NCI-H1944	0.37
NCI-H2170	0.789
NCI-H2228	0.699
SK-MES-1	0.564
SW 900	1.09

same assay, conditions: first compound 31.62 µM

Cell Line	relative viability
201T	0.679
A-427	0.868
BEN	1.5
CAL-12T	0.443
COR-L23	0.506
COR-L 105	0.479
ChaGo-K-1	0.895
EKVX	0.196
EMC-BAC-2	0.889
EPLC-272H	0.316
H3255	0.789
HARA	1.35
HCC-15	0.396
HCC-44	1.04
HCC-78	1.3
HCC-366	0.289
HCC-827	0.567

Cell Line	relative viability
HOP-62	0.497
LC-2-ad	0.81
LCLC-97TM1	0.207
LCLC-103H	0.672
LK-2	1.23
LOU-NH91	0.76
NCI-H358	0.128
NCI-H522	0.749
NCI-H1395	1.05
NCI-H1648	0.553
NCI-H1793	0.454
NCI-H1944	0.412
NCI-H2170	0.779
NCI-H2228	0.681
NCI-H2342	0.773
SK-MES-1	0.574
SW 900	1.07

same assay, conditions: first compound 100 µM

Cell Line	relative viability
201T	0.735
A-427	0.725
BEN	1.43
CAL-12T	0.404
COR-L23	0.5
COR-L 105	0.511
ChaGo-K-1	0.909
EKVX	0.354
EPLC-272H	0.291
H3255	0.648
HARA	1.27
HCC-15	0.4
HCC-44	1.12
HCC-78	1.15
HCC-366	0.23
HCC-827	0.616

Cell Line	relative viability
HOP-62	0.427
LC-2-ad	0.827
LCLC-97TM1	0.247
LCLC-103H	0.745
LK-2	1.54
LOU-NH91	0.786
NCI-H358	0.139
NCI-H522	0.725
NCI-H1395	0.896
NCI-H1648	0.68
NCI-H1793	0.413
NCI-H1944	0.38
NCI-H2170	0.903
NCI-H2228	0.398
NCI-H2342	0.9
SK-MES-1	0.595

same assay, conditions: first compound 316.23 µM

Cell Line	relative viability
201T	0.684
A-427	0.692
BEN	1.13
CAL-12T	0.432
COR-L23	0.456
COR-L 105	0.454
ChaGo-K-1	0.729
EKVX	0.265
EMC-BAC-2	0.73
EPLC-272H	0.311
H3255	0.57
HARA	1.22
HCC-15	0.37
HCC-44	0.931
HCC-78	1.1
HCC-366	0.279
HCC-827	0.577

Cell Line	relative viability
HOP-62	0.364
LC-2-ad	0.81
LCLC-97TM1	0.174
LCLC-103H	0.696
LK-2	1.08
LOU-NH91	0.766
NCI-H358	0.137
NCI-H522	0.899
NCI-H1395	0.974
NCI-H1648	0.53
NCI-H1793	0.45
NCI-H1944	0.365
NCI-H2170	0.869
NCI-H2228	0.434
NCI-H2342	0.823
SK-MES-1	0.57
SW 900	0.825

same assay, conditions: first compound 1000 µM

Cell Line	relative viability
201T	0.681
A-427	0.54
BEN	1.21
CAL-12T	0.452
COR-L23	0.506
COR-L 105	0.489
ChaGo-K-1	0.902
EKVX	0.334
EMC-BAC-2	0.829
EPLC-272H	0.337
H3255	0.508
HARA	1.13
HCC-15	0.395
HCC-44	0.989
HCC-78	0.541
HCC-366	0.314
HCC-827	0.605
